Laboratory results reported in patent US3965109A, “Certain aryl amino pyridines” (priority 1971, dated 1976).

Key:
[1] = test system: Puccinia recondita (wheat); experiment: Fungicidal test against foliar disease A (foliage spray plus soil drench); assay type: in vivo; settings: 10 days
[2] = test system: Phytophthora infestans (tomato); assay type: in vivo; settings: 3 days; for Amount of disease grading, disease B (Table 4): 100 ppm spray and drench
[3] = test system: Plasmopara viticola (vine); experiment: Fungicidal test against foliar disease C (foliage spray plus soil drench); assay type: in vivo; settings: 10 days; for Amount of disease grading, disease C (Table 4): 100 ppm spray and drench
[4] = test system: Uncinula necator (vine); experiment: Fungicidal test against foliar disease D (foliage spray plus soil drench); assay type: in vivo; settings: 10 days; for Amount of disease grading, disease D (Table 4): 100 ppm spray and drench
[5] = test system: Piricularia oryzae (rice); assay type: in vivo; settings: 7 days
[6] = test system: Venturia inaequalis (apple); experiment: Fungicidal test against foliar disease G (foliage spray plus soil drench); assay type: in vivo; settings: 50 ppm spray + 200 ppm soil drench; 21 days
Protocol: This Example illustrates the fungicidal properties of compounds used as active ingredients in the compositions of the invention. The compounds were tested against a wide variety of foliar fungal diseases of plants. In the test, a composition comprising an aqueous solution or suspension of the test compound was sprayed on to the foliage or uninfected plants; the soil in which the plants were growing was also drenched with the composition. The compositions used for spraying and drencing contained 100 parts per million (ppm.) of the test compound except where otherwise stated in the table of results below. After spraying and drenching, the plants were then exposed to infection with the diseases it was desired to control, along with control plants not treated with the compound. After a period of days, depending upon the particular disease, the extent of the disease was visually assessed, as a percentage of the disease established upon the control plants which had not been treated with the compound under test, according to the grading scheme below
In Table 2 below the names of the disease is given in the first column, and in the second column is given the time which elapsed between exposing the plants to infection and assessing the amount of disease.

[7] = test system: Tetranychus telarius (red spider mites, adults); experiment: Pest toxicity test; assay type: in vivo; settings: 0.1% by weight; French bean; 3 days
[8] = test system: Tetranychus telarius (red spider mites, eggs); experiment: Pest toxicity test; assay type: in vivo; settings: 0.1% by weight; French bean; 3 days
[9] = test system: Aphis fabae; experiment: Pest toxicity test; assay type: in vivo; settings: 0.1% by weight; broad bean; 2 days
[10] = test system: Megoura viceae; experiment: Pest toxicity test; assay type: in vivo; settings: 0.1% by weight; broad bean; 2 days
[11] = test system: Aedes aegypti (mosquito larvae); experiment: Pest toxicity test; assay type: in vivo; settings: 0.01% by weight; water; 1 day
[12] = test system: Aedes aegypti (mosquito adults); experiment: Pest toxicity test; assay type: in vivo; settings: 0.01% by weight; plywood; 1 day
[13] = test system: Musca domestica (houseflies); experiment: Pest toxicity test, contact test; assay type: in vivo; settings: 0.1% by weight; milk/sugar; 2 days; flies sprayed directly
[14] = test system: Pieris brassicae (cabbage white caterpillars); experiment: Pest toxicity test; assay type: in vivo; settings: 0.1% by weight, 2 days
[15] = test system: Plutella maculipennis (diamond back moth larvae); experiment: Pest toxicity test; assay type: in vivo; settings: in vivo
[16] = test system: Phaedon cochleariae (mustard beetles); experiment: Pest toxicity test; assay type: in vivo; settings: in vivo
[17] = test system: Meloidogyne incognita (nematodes); experiment: Pest toxicity test; assay type: in vivo; settings: 0.01% by weight; water; 1 day
[18] = test system: Agriolimax reticulatus (slugs); experiment: Molluscicidal activity test; assay type: in vivo, Agriolimax reticulatus (Mull); settings: pellet with 4% by weight; 6 days; 10°C
Summary of the method: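 Compound was applied to a calf feeding pellet at 4% by weight active ingredient after 24 h air drying. Two replicates, each of 2 slugs starved 24 h, were kept with a moist filter paper at 10°C, and kill was assessed after 6 days.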

[19] = test system: larvae of the blowfly (Lucilia serrata); experiment: Insecticidal test on blowfly larvae on treated filter paper; assay type: in vivo; set-up: key: 5 represents inseccticidal activity equal to that of the known insecticide; 6 represents activity 10 times that of the standard; settings: scale of 1 to 6; filter paper with horse serum
[20] = test system: Lettuce; experiment: Herbicidal test, pre- and post-emergence; assay type: in vivo; settings: 10 kg/ha; scale 0 to 3 (complete kill)
[21] = test system: Tomato; experiment: Herbicidal test, pre- and post-emergence; assay type: in vivo; settings: 10 kg/ha; scale 0 to 3 (complete kill)
[22] = test system: Wheat; experiment: Herbicidal test, pre- and post-emergence; assay type: in vivo; settings: 10 kg/ha; scale 0 to 3 (complete kill)
[23] = test system: Maize; experiment: Herbicidal test, pre- and post-emergence; assay type: in vivo; settings: 10 kg/ha; scale 0 to 3 (complete kill)
[24] = test system: Agrobacterium tumifaciens; experiment: Antibacterial agar test (B1); assay type: cell-based; settings: 50 ppm; 5 days
[25] = test system: Corynebacterium michiganense; experiment: Antibacterial agar test (B2); assay type: cell-based; settings: 50 ppm; 5 days
Summary of the method: (§1)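 Compound was dissolved or suspended in acetone and mixed into nutrient agar to 50 ppm final, then dried overnight in Petri dishes. Plates were inoculated with the bacteria via multipoint inoculator and antibacterial activity was graded after 5 days.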

[26] = test system: Xanthomonas malvacearum; experiment: Antibacterial agar test (B3); assay type: cell-based; settings: 50 ppm; 5 days
Summary of the method: as §1

[27] = test system: Erwinia carotovora; experiment: Antibacterial agar test (B4); assay type: cell-based; settings: 50 ppm; 5 days
[28] = test system: Xanthomonas oryzae; assay type: cell-based; settings: 50 ppm; 5 days
[29] = test system: Pseudomonas syringae; experiment: Antibacterial agar test (B6); assay type: cell-based; settings: 50 ppm; 5 days
[30] = test system: Streptomyces scabies; experiment: Antibacterial agar test (B7); assay type: cell-based; settings: 50 ppm; 5 days
[31] = 50 ppm spray + 200 ppm soil drench

Row | Structure (SMILES) | Mortality grading (kill) [7] | Mortality grading (kill) [8] | Mortality grading (kill) [9] | Mortality grading (kill) [10] | Mortality grading (kill) [11] | Mortality grading (kill) [12] | Mortality grading (kill), contact test [13] | Mortality grading (kill) [14] | Mortality grading (kill) [15] | Mortality grading (kill) [16] | Mortality grading (kill) [17] | Amount of disease grading, disease B (Table 4) [2] | Amount of disease grading, disease C (Table 4) [3] | Amount of disease grading, disease D (Table 4) [4] | % Kill of slugs [18] [%] | Activity relative to lindane [19] | also measured
1 | Fc1nc(F)c(Cl)c(Nc2c(Cl)cccc2Cl)c1Cl [Compound 3, 3,5-Dichloro-2,6-difluoro-4(2,6-dichloroanilino)pyridine] | 0 (O represents less than 30% kill) | 2 (2 represents 60 - 90% kill) | 0 (O represents less than 30% kill) | 0 (O represents less than 30% kill) | 0 (O represents less than 30% kill) | 0 (O represents less than 30% kill) | 0 (O represents less than 30% kill) | 0 (O represents less than 30% kill) | 0 (key: O represents less than 30% kill; 1 represents 30 - 49% kill; 2 represents 60 - 90% kill; 3 represents over 90% kill; C indicates a chemosterilant effect.; A indicates an antifeeding effect.) | 0 (key: O represents less than 30% kill; 1 represents 30 - 49% kill; 2 represents 60 - 90% kill; 3 represents over 90% kill; C indicates a chemosterilant effect.; A indicates an antifeeding effect.) | 2 (2 represents 60 - 90% kill) | – | – | – | – | – | Amount of disease grading, disease A [1, 31]: 0 (61 to 100); Amount of disease grading, disease B [2, 31]: 0 (61 to 100); Amount of disease grading, disease C [3, 31]: 2 (6 to 25); Amount of disease grading, disease D [4, 31]: 3 (0 to 5); Amount of disease grading, disease E [5, 31]: 0 (61 to 100); Amount of disease grading, disease G [6]: 0 (61 to 100)
2 | O=[N+]([O-])c1cc([N+](=O)[O-])c2ccccc2c1Nc1c(Cl)c(F)nc(F)c1Cl [Compound 25, 3,5-Dichloro-2,6-difluoro-4(2,4-dinitro-1-naphthylamino) pyridine] | 0 (O represents less than 30% kill) | 2 (2 represents 60 - 90% kill) | 0 (O represents less than 30% kill) | 0 (O represents less than 30% kill) | 3 (3 represents over 90% kill) | 0 (O represents less than 30% kill) | 0 (O represents less than 30% kill) | 3 (3 represents over 90% kill) | 0 (key: O represents less than 30% kill; 1 represents 30 - 49% kill; 2 represents 60 - 90% kill; 3 represents over 90% kill; C indicates a chemosterilant effect.; A indicates an antifeeding effect.) | 2 (key: O represents less than 30% kill; 1 represents 30 - 49% kill; 2 represents 60 - 90% kill; 3 represents over 90% kill; C indicates a chemosterilant effect.; A indicates an antifeeding effect.) | 3 (3 represents over 90% kill) | 3 (0 to 5) | 3 (0 to 5) | 3 (0 to 5) | 50 | 5 | Amount of disease grading, disease A (Table 4) ([1]; 100 ppm spray and drench): 2 (6 to 25); Amount of disease grading, disease E (Table 4) ([5]; 100 ppm spray and drench): 0 (61 to 100)
3 | N#Cc1cc([N+](=O)[O-])c(Nc2c(Cl)c(F)nc(F)c2Cl)c([N+](=O)[O-])c1 [Compound 34, 4(4-Cyano-2,6-dinitroanilino)-3,5-dichloro-2,6-difluoropyridine] | 3 (3 represents over 90% kill) | 3 (3 represents over 90% kill) | 3 (3 represents over 90% kill) | 0 (O represents less than 30% kill) | 3 (3 represents over 90% kill) | 0 (O represents less than 30% kill) | – | 0 (O represents less than 30% kill) | 2 (key: O represents less than 30% kill; 1 represents 30 - 49% kill; 2 represents 60 - 90% kill; 3 represents over 90% kill; C indicates a chemosterilant effect.; A indicates an antifeeding effect.) | 0 (key: O represents less than 30% kill; 1 represents 30 - 49% kill; 2 represents 60 - 90% kill; 3 represents over 90% kill; C indicates a chemosterilant effect.; A indicates an antifeeding effect.) | – | 3 (0 to 5) | 3 (0 to 5) | 3 (0 to 5) | 100 | 5 | Damage to plants, post-emergence [20]: 0; Damage to plants, pre-emergence [20]: 3; Damage to plants, post-emergence [21]: 0; Damage to plants, pre-emergence [21]: 2; Damage to plants, post-emergence [22]: 0; Damage to plants, pre-emergence [22]: 3; Damage to plants, post-emergence [23]: 0; Damage to plants, pre-emergence [23]: 3; Antibacterial activity grading B1 [24]: 0 (61 to 100); Antibacterial activity grading B2 [25]: 3 (0 to 5); Antibacterial activity grading B3 [26]: 2 (6 to 25); Antibacterial activity grading B4 [27]: 0 (61 to 100); Antibacterial activity grading B5 [28]: 2 (6 to 25); Antibacterial activity grading B6 [29]: 3 (0 to 5); Antibacterial activity grading B7 [30]: 3 (0 to 5)
